Experimental data taken from patent publication US20200289482A1, “CYSTIC FIBROSIS TRANSMEMBRANE CONDUCTANCE REGULATOR MODULATORS FOR TREATING AUTOSOMAL DOMINANT POLYCYSTIC KIDNEY DISEASE” (The Johns Hopkins University, priority 2017, published 2020).

How the values were obtained:
[1] = system: Hsp40; assay: Western blot of Hsp40 in kidney tissue lysates; assay type: in vivo, mouse; conditions: cyst induced pkd−/− mice, VX-809 30 mg/kg BW
Description: FIG. 7A, FIG. 7B, FIG. 7C, FIG. 7D, FIG. 7E, and FIG. 7F show chaperone expression is altered in mice by VX-809. (FIG. 7A-FIG. 7B) Representative Western blot images of HSP27, 70, 90 and HSP40 in lysates of kidney tissue from no cyst induced (ND), cyst induced with Doxycycline (D) or cyst induced pkd−/− mice treated with VX-809 (D+VX-809) 30 mg/kg BW. (FIG. 7C, FIG. 7D, FIG. 7E, and FIG. 7F) Columns represent averages±standard errors of HSP27, 70, 90 and HSP40 expression. Data were analyzed by non-parametric t-test. n=4 for each treated and control groups. Black lines between lanes represent representative experiments from the same gel. *P<0.05; **P<0.01; To facilitate their growth in the kidney, cysts have developed an altered network of proteins that most likely serves to protect them from stress (34). Next, it was determined whether VX-809 would alter the levels of Hsps in pkd−/− mice and in PN cells. […] Hsp 27, 70 and 90 are all elevated in cystic kidneys compared to normal controls. […] There is no change in Hsp 40. […] Both sets of data are consistent with an alteration in the heat shock response to cyst growth.

[2] = system: caspase 3 activity in PN cells; assay: EnzChek Caspase-3 assay (apoptosis); assay type: cell-based, mouse; conditions: 16 h treatment
Description: Apoptosis was measured using the EnzChek Caspase-3 Assay Kit (Invitrogen # E13184). Cells were treated either with VX-809 or with DMSO at indicated concentrations for 16 h or left untreated (control). Both treated and control cells were then harvested, lysed, and assayed as described in the manufacturer's protocol. Reactions were carried out at room temperature, and fluorescence was measured in a fluorescence microplate reader (SpectraMax M3), with excitation at 496 nm and emission detection at 520 nm. Background fluorescence, determined for a no-enzyme control, has been subtracted from each value. Ac-DEVD-CHO was used as an inhibitor control (Inh-cntrl) to confirm the correlation between signal detection and caspase3-like protease activity. Data were analyzed using one-way and ANOVA multiple comparisons. n=4-5. ****P<0.0001;
Apoptosis is associated with the absence of PC1 in ADPKD (36). To assess whether apoptosis is directly altered by VX-809, caspase 3 activity was monitored in PN cells.

[3] = system: Ero1; assay: Western blot of ER stress marker Ero1 in kidney tissue; assay type: in vivo, mouse; conditions: cyst induced pkd−/− mice, VX-809 30 mg/kg BW
Description: (§1) FIG. 11A. FIG. 11B, FIG. 11C, FIG. 11D, and FIG. 11E show expression of ER stress markers GRP78, ErO1, and GADD in Pkd1^−/− mice treated with VX-809. (FIG. 11A & FIG. 11D) Representative Western blot images of GRP78, ErO1, and GADD in lysates of kidney tissue from no cyst induced (ND), cyst induced with doxycycline (D) or cyst induced pkd−/− mice treated with VX-809 (D+VX-809) 30 mg/kg BW. (FIG. 11B, FIG. 11C and FIG. 11E) Columns represent averages±standard errors of GRP78, ErO1, and GADD153 expression. Data were analyzed by non-parametric t-test. n=4 for each treated and control groups. Black lines between lanes represent representative experiments from the same gel but loaded in different lanes. **P<0.01, ***P<0.001;
(§2) Given that VX-809 alters an ensemble of Hsps, it was evaluated whether VX-809 alters proteins associated with ER stress. To address this question, the levels of three ER stress-associated proteins were measured, 78-kDa glucose-regulated protein (GRP78), ER oxidoreductin 1 (Ero1) and DNA damage-inducible protein 3 (GADD153), also known as C/EBP homologous protein (CHOP) (37). The results are depicted in FIG. 11 show no changes in GRP78 or Ero1 in response to VX-809.

[4] = system: GADD153; assay: Western blot of ER stress marker GADD153 in kidney tissue; assay type: in vivo, mouse; conditions: cyst containing mice, VX-809 30 mg/kg BW
Description: as §1, §2

[5] = system: NHE3; assay: NHE3 activity in PN cells; assay type: cell-based, mouse; conditions: PN cells treated with VX-809 vs PN cells
Description: FIG. 15A and FIG. 15B show NHE3 activity in PN and PH cells (FIG. 15A and FIG. 15B) and NHE3 activity in PN cells treated with VX-809.
FIG. 16A, FIG. 16B, and FIG. 16C show NHE activity in PN/PH cells or PN cells treated with VX-809;
The expression and activity of […] were evaluated. Specifically, NHE3 expression was evaluated in PN cells that were treated with VX-809. […] was also studied in PN, PH, and PN cells treated with VX-809. […] Next, NHE3 activity was evaluated in PN/PH cells or PN cells treated with VX-809. NHE3 activity was increased in PN cells treated with VX-809, as compared to PN cells (FIG. 16A). NHE3 activity was higher in control PH cells than in PN cells (FIG. 16B). […] NHE3 activity was increased in both VX-809 treated PN cells and control PH cells, as compared to control PN cells (FIG. 16C).

[6] = molecular target: CFTR (Mus musculus, UniProt P26361); assay: Biotinylation of CFTR in PN cells; assay type: cell-based; parameters: endogenous in cells; host or cells: PN (Pkd1-null mouse proximal tubule) cells; conditions: VX-809 treatment vs control PN cells
Chain of CFTR (P26361 whole entry): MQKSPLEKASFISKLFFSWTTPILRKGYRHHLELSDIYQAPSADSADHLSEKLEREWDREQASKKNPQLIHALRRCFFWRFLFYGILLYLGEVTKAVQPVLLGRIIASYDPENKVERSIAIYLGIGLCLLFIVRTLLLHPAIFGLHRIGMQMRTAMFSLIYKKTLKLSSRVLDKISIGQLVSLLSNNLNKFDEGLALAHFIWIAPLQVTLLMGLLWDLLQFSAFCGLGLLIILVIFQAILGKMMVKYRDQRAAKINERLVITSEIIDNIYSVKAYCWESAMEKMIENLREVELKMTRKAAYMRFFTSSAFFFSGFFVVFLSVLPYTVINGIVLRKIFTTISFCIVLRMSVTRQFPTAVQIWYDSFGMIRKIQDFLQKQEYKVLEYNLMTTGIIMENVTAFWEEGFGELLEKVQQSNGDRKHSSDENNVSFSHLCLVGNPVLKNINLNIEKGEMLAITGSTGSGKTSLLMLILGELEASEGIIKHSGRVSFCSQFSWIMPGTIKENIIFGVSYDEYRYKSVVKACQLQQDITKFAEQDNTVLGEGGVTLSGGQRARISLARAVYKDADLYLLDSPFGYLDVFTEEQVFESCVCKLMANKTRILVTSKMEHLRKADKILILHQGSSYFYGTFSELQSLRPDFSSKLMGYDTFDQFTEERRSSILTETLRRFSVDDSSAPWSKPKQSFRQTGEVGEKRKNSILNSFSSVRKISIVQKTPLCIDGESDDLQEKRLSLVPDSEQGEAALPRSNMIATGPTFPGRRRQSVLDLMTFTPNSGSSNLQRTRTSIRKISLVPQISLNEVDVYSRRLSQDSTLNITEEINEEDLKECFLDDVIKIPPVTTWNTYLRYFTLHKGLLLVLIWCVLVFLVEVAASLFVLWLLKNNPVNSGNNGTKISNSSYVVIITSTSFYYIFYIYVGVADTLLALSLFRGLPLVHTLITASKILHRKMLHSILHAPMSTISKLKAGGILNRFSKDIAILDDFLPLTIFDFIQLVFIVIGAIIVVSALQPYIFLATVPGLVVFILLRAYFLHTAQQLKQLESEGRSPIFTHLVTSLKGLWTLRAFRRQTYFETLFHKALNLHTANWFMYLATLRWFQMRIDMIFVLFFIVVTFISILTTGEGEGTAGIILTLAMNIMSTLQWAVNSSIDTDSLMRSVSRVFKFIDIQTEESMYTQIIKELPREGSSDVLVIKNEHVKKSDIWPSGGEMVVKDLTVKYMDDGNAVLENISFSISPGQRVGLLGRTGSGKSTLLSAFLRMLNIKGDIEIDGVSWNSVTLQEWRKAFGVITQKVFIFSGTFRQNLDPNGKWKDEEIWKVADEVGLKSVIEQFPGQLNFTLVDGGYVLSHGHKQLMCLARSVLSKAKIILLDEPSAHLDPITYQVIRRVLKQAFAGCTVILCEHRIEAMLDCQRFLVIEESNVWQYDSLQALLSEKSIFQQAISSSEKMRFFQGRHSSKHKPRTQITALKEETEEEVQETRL
Description: FIG. 19A, FIG. 19B, FIG. 19C, and FIG. 19D show CFTR expression in PN cells treated with VX-809 (10 μM) for 16 h.
The expression of CFTR was evaluated in PN cells treated with VX-809 and control PN cells. PN cells were treated with 10 μM VX-809 for 16 h or a control.

lumacaftor [VX-809]
Hsp40 expression in kidneys [1]: no change | caspase 3 activity [2]: small reduction in caspase 3 activity | Ero1 expression [3]: no changes | GADD153 expression (Western blot) [4]: equally dramatic reduction in GADD153 | NHE3 activity [5]: significantly increased | biotinylation of CFTR [6]: significantly increased
